Test results published in BindingDB's records for doi:10.1016/j.bmcl.2011.01.024 (Amira Pharmaceuticals, 2011).

test: Inhibition of human prostanoid DP2 receptor in human whole bood assessed as eosinophil shape change preincubated for 15 mins before addition of PGD2 measured after 5 mins by FACS analysis

CCN(Cc1cc(C(F)(F)F)ccc1-c1cc(CC(=O)O)ccc1OC)C(=O)OCc1ccccc1Cl and CCN(Cc1cc(C(F)(F)F)ccc1-c1cc(CC(=O)O)ccc1OC)C(=O)OCc1cccc(Cl)c1 are the same in IC50: 7 nM for the first, 7 nM for the second.

Going from COC(=O)N(CCc1ccccc1)Cc1cc(C(F)(F)F)ccc1-c1cc(CC(=O)O)ccc1OC to COC(=O)N(Cc1ccccc1)Cc1cc(C(F)(F)F)ccc1-c1cc(CC(=O)O)ccc1OC, the IC50 falls from 34 nM to 22 nM (1.5-fold). The second is the more potent here.

CCN(Cc1cc(C(F)(F)F)ccc1-c1cc(CC(=O)O)ccc1OC)C(=O)OC and CCN(Cc1cc(C(F)(F)F)ccc1-c1cc(CC(=O)O)ccc1OC)C(=O)OCc1ccc(Cl)cc1 are within 1.5-fold of each other in IC50: 8 nM for the first, 6 nM for the second.

Going from COc1ccc(CC(=O)O)cc1-c1ccc(C(F)(F)F)cc1CNC(=O)OCc1ccccc1 to COc1ccc(CC(=O)O)cc1-c1ccc(C(F)(F)F)cc1CN(C)C(=O)OCc1ccccc1, the IC50 falls from 709 nM to 9 nM (79-fold).

With CCN(Cc1cc(C(F)(F)F)ccc1-c1cc(CC(=O)O)ccc1OC)C(=O)OCc1cc(F)cc(F)c1 the IC50 was 5 nM.
